Assay results published in US20240182460A1, “ALLOSTERIC CHROMENONE INHIBITORS OF PHOSPHOINOSITIDE 3-KINASE (PI3K) FOR THE TREATMENT OF DISEASE” (PETRA PHARMA CORPORATION, priority 2022, published 2024).

These molecules were tested against PI3Kα E545K (Homo sapiens, UniProt P42336, E545K) (assay: PI3Kα E545K mutant in vitro cell based assay, MDA-MB-361 cells). Settings: MDA-MB-361 cell line, 0% FBS, no insulin, 3 hours treatment.
Set-up: MDA-MB-361 (ATCC-HTB-27) cell line (PI3Kα E545K); host or cells: MDA-MB-361
Excerpt: PI3K-Alpha Kinase (PI3Kα) Activity: Wild-Type PI3Kα, H1047R Mutant PI3Kα, and E545K Mutant PI3Kα In Vitro Cell Based Assays and Determination of IC50 Values for Inhibitors
The MDA-MB-453 (ATCC-HTB-131) cell line (PI3Kα H1047R) and MCF-7 (ATCC-HTB-22) cell line (PI3Kα E545K), MDA-MB-361 (ATCC-HTB-27) cell line (PI3Kα E545K), and SKBR3 (ATCC-HTB-30) cell line (wild type PI3Kα) were obtained from the American Type Culture Collection (Manassas, VA). MDA-MB-453 cells were maintained in Dulbecco's Modified Eagle Media (DMEM, Gibco 12430) supplemented with 10% Fetal Bovine Serum, heat inactivated (FBS HI, Gibco 10082), 1× non-essential amino acids (NEAA, Gibco 11140), 1 mM sodium pyruvate (Gibco 11360) and 1× Anti-Anti (Gibco 15240). MCF-7 cells were maintained in Minimum Essential Media (MEM) (Gibco 11095) supplemented with 10% Fetal Bovine Serum, heat inactivated (FBS HI, Gibco 10082), 1× non-essential amino acids (NEAA, Gibco 11140), 1 mM sodium pyruvate (Gibco 11360), 1× Anti-Anti (Gibco 15240) and 10 μg/mL human insulin (Sigma I 9278). MDA-MB-361 cells were maintained in Dulbecco's Modified Eagle Media (DMEM, Gibco 12430) supplemented with 20% Fetal Bovine Serum, heat inactivated (FBS HI, Gibco 10082), 1× non-essential amino acids (NEAA, Gibco 11140), 1 mM sodium pyruvate (Gibco 11360) and 1× Anti-Anti (Gibco 15240). SKBR3 cells were maintained in McCoy's 5A (Gibco 16600) supplemented with 10% Fetal Bovine Serum, heat inactivated (FBS HI, Gibco 10082), and 1× Anti-Anti (Gibco 15240). Cultures were maintained in a humidified incubator at 37° C. under 5% CO2/95% air.
For compound testing in 0% FBS, MDA-MB-453, MCF-7 and SKBR3 cells were seeded at a density of 1.5×10^4, 1.0×10^4, and 1.0×10^4 cells, respectively, per well in white 384-well plates in 20 μl of Minimum Essential Media (MEM) assay media with 1×NEAA, 1 mM sodium pyruvate, and 1 μg/mL human insulin (Sigma 19278) (Assay Medium); while MDA-MB-361 cells were seeded at a density of 1.5×10^4 per well in white 384-well plates in 20 μl Assay Medium without insulin. After plating, cells were allowed to attach overnight. Compounds dissolved in 10 mM stock solutions in DMSO were serially diluted 1:3 in DMSO to generate a 10-point dilution series and plated using an acoustic liquid handler system (Echo 550 Series Liquid Handler, Labcyte). A 5× intermediate compound dilution plate in MEM with 1×NEAA and 1 mM sodium pyruvate (150 μM starting compound concentration in 1.5% DMSO) was then prepared. Five μl of the intermediate serially diluted compounds were added to the cell plate to final concentrations ranging from […] in 0.3% DMSO. 0.3% DMSO alone was used to establish the maximum (MAX) signal and GDC-0032 at a final concentration of 1 μM was used as a reference compound for the minimum (MIN) signal. After 3 hours treatment, the medium was removed, and the cells were lysed in 10 μL of 1× SureFire Lysis buffer with shaking for 10 minutes at room temperature. The Acceptor Mix (Reaction Buffer 1+Reaction Buffer 2+Activation Buffer+SureFire Ultra Acceptor Beads) was prepared by diluting Activation buffer 25-fold in combined Reaction Buffer 1 and Reaction Buffer 2.
The Acceptor beads were diluted 50-fold in the combined Reaction Buffers. Five μL of Acceptor Mix was added to each well, the plate was sealed and covered with foil and incubated for 1 hour at room temperature. The Donor Mix (dilution buffer+SureFire Ultra Donor Beads) was prepared by diluting Donor Beads 50-fold in dilution buffer. Five μL of the Donor Mix was added to each well and the plate sealed and covered with foil and incubated for 1-2 hours at room temperature in the dark. The plates were read on a Neo2 plate reader instrument from Biotek using standard AlphaLisa settings.
Compounds were tested in duplicate and the % inhibition at each compound concentration was used to generate two dose response curves. One IC50 was generated using average % inhibition at each compound concentration. […]

Sequence of PI3Kα E545K (P42336 whole entry E545K): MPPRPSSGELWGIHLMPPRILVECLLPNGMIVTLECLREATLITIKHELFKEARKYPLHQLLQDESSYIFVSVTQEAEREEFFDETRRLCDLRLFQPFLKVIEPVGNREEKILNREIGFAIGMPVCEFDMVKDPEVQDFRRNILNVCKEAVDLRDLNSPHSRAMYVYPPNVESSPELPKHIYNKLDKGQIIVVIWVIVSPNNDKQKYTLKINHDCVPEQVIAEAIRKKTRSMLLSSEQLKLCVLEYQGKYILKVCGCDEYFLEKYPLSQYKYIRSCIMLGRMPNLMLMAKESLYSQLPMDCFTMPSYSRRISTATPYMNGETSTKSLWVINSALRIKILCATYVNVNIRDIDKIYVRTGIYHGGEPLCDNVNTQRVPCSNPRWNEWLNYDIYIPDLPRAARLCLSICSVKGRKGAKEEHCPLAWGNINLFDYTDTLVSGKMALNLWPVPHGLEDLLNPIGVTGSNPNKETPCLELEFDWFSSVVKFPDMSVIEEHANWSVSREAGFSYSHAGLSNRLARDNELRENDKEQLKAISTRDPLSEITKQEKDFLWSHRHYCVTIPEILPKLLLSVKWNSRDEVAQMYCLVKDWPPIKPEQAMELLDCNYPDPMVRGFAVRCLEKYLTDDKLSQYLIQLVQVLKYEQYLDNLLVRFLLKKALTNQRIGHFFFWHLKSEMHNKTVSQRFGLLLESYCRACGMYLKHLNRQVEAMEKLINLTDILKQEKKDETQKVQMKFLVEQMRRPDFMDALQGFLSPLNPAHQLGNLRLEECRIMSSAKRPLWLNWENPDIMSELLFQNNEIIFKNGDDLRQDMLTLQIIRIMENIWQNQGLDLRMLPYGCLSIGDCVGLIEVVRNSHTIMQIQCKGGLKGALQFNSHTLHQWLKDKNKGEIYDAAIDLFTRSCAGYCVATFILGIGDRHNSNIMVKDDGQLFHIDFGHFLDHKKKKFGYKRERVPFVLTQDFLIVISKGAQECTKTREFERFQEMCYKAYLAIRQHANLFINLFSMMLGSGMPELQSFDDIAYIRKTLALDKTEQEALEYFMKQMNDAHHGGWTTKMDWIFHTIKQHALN
Sequence of PI3Kα E545K (P27986 whole entry partner): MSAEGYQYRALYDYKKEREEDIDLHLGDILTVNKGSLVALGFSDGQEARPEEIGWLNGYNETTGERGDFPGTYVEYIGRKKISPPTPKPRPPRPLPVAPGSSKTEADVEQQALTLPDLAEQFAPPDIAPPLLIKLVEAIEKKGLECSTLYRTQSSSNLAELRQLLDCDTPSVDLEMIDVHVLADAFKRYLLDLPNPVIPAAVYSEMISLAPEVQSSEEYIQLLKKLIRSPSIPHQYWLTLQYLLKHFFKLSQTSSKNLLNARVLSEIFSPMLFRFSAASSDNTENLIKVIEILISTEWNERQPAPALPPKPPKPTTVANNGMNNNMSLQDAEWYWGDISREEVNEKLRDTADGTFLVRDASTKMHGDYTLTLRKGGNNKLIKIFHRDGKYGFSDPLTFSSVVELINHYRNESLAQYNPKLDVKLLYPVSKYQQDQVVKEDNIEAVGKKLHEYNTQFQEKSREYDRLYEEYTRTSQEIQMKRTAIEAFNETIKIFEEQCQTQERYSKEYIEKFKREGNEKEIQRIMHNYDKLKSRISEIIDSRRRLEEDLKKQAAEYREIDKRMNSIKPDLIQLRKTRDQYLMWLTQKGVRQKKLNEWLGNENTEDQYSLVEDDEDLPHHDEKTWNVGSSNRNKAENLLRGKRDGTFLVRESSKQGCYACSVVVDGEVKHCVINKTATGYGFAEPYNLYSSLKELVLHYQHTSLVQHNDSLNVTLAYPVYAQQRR

Compound	IC50 [nM]
Cc1cc([C@@H](C)Oc2ccc(Cl)nc2S(N)(=O)=O)c2oc(-c3cnn(C[C@]45C[C@H](CO4)C5)c3)c(C)c(=O)c2c1 [Example 118C, 6-Chloro-3-[(1R)-1-[3,6-dimethyl-2-[1-(2-oxabicyclo[2.1.1]hexan-1-ylmethyl)pyrazol-4-yl]-4-oxo-chromen-8-yl]ethoxy]pyridine-2-sulfonamide]	< 500
Cc1cc([C@@H](C)Oc2ccc(Cl)nc2C)c2oc(-c3cnn(CCO)c3)c(C)c(=O)c2c1 [Example 72C, 8-[(1R)-1-[(6-Chloro-2-methyl-3-pyridyl)oxy]ethyl]-2-[1-(2-hydroxyethyl)pyrazol-4-yl]-3,6-dimethyl-chromen-4-one]	< 500
Cc1cc([C@@H](C)Oc2ccc(Cl)nc2C(N)=O)c2oc(-c3ccc4c(c3)OCCN4C)c(C)c(=O)c2c1 [Example 104A, 6-Chloro-3-[(1R)-1-[3,6-dimethyl-2-(4-methyl-2,3-dihydro-1,4-benzoxazin-7-yl)-4-oxo-chromen-8-yl]ethoxy]pyridine-2-carboxamide]	< 500
Cc1cc([C@@H](C)Oc2ccc(Cl)nc2C(N)=O)c2oc(-c3ccc4nn(C)c(C)c4c3)c(C)c(=O)c2c1 [Example 50C, 6-Chloro-3-[(1R)-1-[2-(2,3-dimethylindazol-5-yl)-3,6-dimethyl-4-oxo-chromen-8-yl]ethoxy]pyridine-2-carboxamide]	< 500
Cc1cc([C@@H](C)Oc2ccc(Cl)nc2C(N)=O)c2oc(-c3ccn4nc(C)cc4c3)c(C)c(=O)c2c1 [Example 76C, 6-Chloro-3-[(1R)-1-[3,6-dimethyl-2-(2-methylpyrazol[1,5-a]pyridin-5-yl)-4-oxo-chromen-8-yl]ethoxy]pyridine-2-carboxamide]	< 500
Cc1cc([C@@H](C)Oc2ccc(Cl)nc2C(N)=O)c2oc(-c3ccc4cc[nH]c(=O)c4c3)c(C)c(=O)c2c1 [Example 120A, 6-Chloro-3-[(1R)-1-[3,6-dimethyl-4-oxo-2-(1-oxo-2H-isoquinolin-7-yl)chromen-8-yl]ethoxy]pyridine-2-carboxamide]	< 500
Cc1cc([C@@H](C)Oc2ccc(Cl)nc2C(N)=O)c2oc(-c3ccc4c(c3)OC(F)(F)O4)c(C)c(=O)c2c1 [Example 60A, 6-Chloro-3-[(1R)-1-[2-(2,2-difluoro-1,3-benzodioxol-5-yl)-3,6-dimethyl-4-oxo-chromen-8-yl]ethoxy]pyridine-2-carboxamide]	< 500
Cc1cc([C@@H](C)Oc2ccc(Cl)nc2C(N)=O)c2oc(-c3ccc4nn([C@H]5C[C@H](O)C5)cc4c3)c(C)c(=O)c2c1 [Example 134C, 6-Chloro-3-[(1R)-1-[2-[2-(3-hydroxycyclobutyl)indazol-5-yl]-3,6-dimethyl-4-oxo-chromen-8-yl]ethoxy]pyridine-2-carboxamide]	< 500
Cc1cc([C@@H](C)Oc2ccc(Cl)nc2C(N)=O)c2oc(-c3cnn4c3COCC4)c(C)c(=O)c2c1 [Example 40A, 6-Chloro-3-[(1R)-1-[2-(6,7-dihydro-4H-pyrazolo[5,1-c][1,4]oxazin-3-yl)-3,6-dimethyl-4-oxo-chromen-8-yl]ethoxy]pyridine-2-carboxamide]	< 500
Cc1cc([C@@H](C)Oc2ccc(Cl)cc2S(N)(=O)=O)c2oc(-c3cnc4ccoc4c3)c(C)c(=O)c2c1 [Example 100C, 5-Chloro-2-[(1R)-1-(2-furo[3,2-b]pyridin-6-yl-3,6-dimethyl-4-oxo-chromen-8-yl)ethoxy]benzenesulfonamide]	< 500
Cc1cc([C@@H](C)Oc2ccc(C)nc2S(N)(=O)=O)c2oc(-c3ccccc3)c(C)c(=O)c2c1 [Example 122C, 3-[(1R)-1-(3,6-Dimethyl-4-oxo-2-phenyl-chromen-8-yl)ethoxy]-6-methyl-pyridine-2-sulfonamide]	< 500
Cc1cc([C@@H](C)Oc2cccnc2-c2ccccc2F)c2oc(-c3cc[nH]c(=O)c3)c(C)c(=O)c2c1 [Example 29A, 4-[8-[(1R)-1-[[2-(2-Fluorophenyl)-3-pyridyl]oxy]ethyl]-3,6-dimethyl-4-oxo-chromen-2-yl]-1H-pyridin-2-one]	< 500
Cc1cc([C@@H](C)Oc2ccc(Cl)nc2S(N)(=O)=O)c2oc(-c3cnn(C[C@H](C)O)c3)c(C)c(=O)c2c1 [Example 7B, 6-Chloro-3-[(1R)-1-[2-[1-[(2S)-2-hydroxypropyl]pyrazol-4-yl]-3,6-dimethyl-4-oxo-chromen-8-yl]ethoxy]pyridine-2-sulfonamide]	< 500
Cc1cc([C@@H](C)Oc2ccc(Cl)nc2S(N)(=O)=O)c2oc(-c3cnn(C)c3)c(C)c(=O)c2c1 [Example 14A, 6-Chloro-3-[(1R)-1-[3,6-dimethyl-2-(1-methylpyrazol-4-yl)-4-oxo-chromen-8-yl]ethoxy]pyridine-2-sulfonamide]	< 500
Cc1cc([C@@H](C)Oc2ccc(Cl)nc2S(N)(=O)=O)c2oc(-c3cnc(OC(C)C)nc3)c(C)c(=O)c2c1 [Example 23C, 6-Chloro-3-[(1R)-1-[2-(2-isopropoxypyrimidin-5-yl)-3,6-dimethyl-4-oxo-chromen-8-yl]ethoxy]pyridine-2-sulfonamide]	< 500
